The text below walks through data of patent publication US4394382A, “Dihydrobenzopyran compounds and pharmaceutical composition comprising said compounds” (Kowa Company, Ltd., priority 1980, dated 1983).

The nature of assay [1]: urine and electrolyte excretion, oral water load method. It is filed as in vivo. The settings on record: rat, over 5 hours; for Amount of urine: average ± standard deviation. As for the experimental part:
Using rats, five per group, the amount of urine and the amount of electrolytes (sodium, potassium) excreted were measured over 5 hours after oral administration of each of the drugs by an oral water load method. Each of the test drugs was suspended in a 0.5% carboxymethyl cellulose solution and orally administered. Each of the numerical values given in the table is an average value ± standard deviation.

In assay [2] the test system is Femoral blood flow (femoral artery). Description: femoral blood flow in anesthetized dogs. In kind it is in vivo, dog. The settings on record: 1 to 300 μg/kg, *: an increase of about 10% as low doses, and a decrease of about 20% at high doses. As for the experimental part:
Adult dogs were anesthetized with 30 mg/kg of pentobarbital administered intravenously and ventilated artificially. The effect of the compounds Ia and Ib on hemodynamic parameters was investigated. Drugs were used dissolved in 0.1 N hydrochloric acid and administered over the 1 to 300 μg/kg dose range.
Measured with an electromagnetic flowmeter probe placed on the femoral artery.

The test system of assay [3] is potassium contracture, left circumflex branch (coronary artery). Description: isolated coronary artery, action on potassium contracture (Magnus method). The note with it: dog coronary artery, 50% inhibition of maximum reaction, reciprocal logarithm of molar concentration. On the procedure: Each of the test drugs was used in a concentration of 10^-9 to 4×10^-4 mole/1000 ml (M). (3) Isolated coronary artery Using the left circumflex branch of a dog, the action of the test drugs on potassium contracture was examined.

Assay [4] concerns the target T1, isoproterenol, bronchus (Cavia porcellus, UniProt Q8K4Z4).
T1 construct: Using the bronchus of a guinea pig; from tissue; host or cells: guinea pig bronchus
Nature of the assay: isolated bronchus sample, antagonistic action on isoproterenol (Magnus method). The note with it: guinea pig bronchus, vs isoproterenol, reciprocal logarithm of molar concentration. On the procedure:
(§1) Each of the test drugs was used in a concentration of 10^-9 to 4×10^-4 mole/1000 ml (M).
(2) Isolated bronchus sample
Using the bronchus of a guinea pig, the antagonistic action of the test drugs on isoproterenol was examined.

In assay [5] the test system is various isolated smooth muscles. Description: activities on various isolated smooth muscles, overall (Magnus method). As for the experimental part: (§2) The activities of the compounds Ia and Ib on various isolated smooth muscles were examined by the Magnus method. Each of the test drugs was used in a concentration of 10^-9 to 4×10^-4 mole/1000 ml (M).
The test system of assay [6] is potassium contracture, portal vein. Nature of the assay: isolated portal vein, action on potassium contracture (Magnus method). The settings on record: dog portal vein, 50% inhibition of maximum reaction, reciprocal logarithm of molar concentration. As for the experimental part: as §2
Using an isolated portal vein of a dog, the action of the test drugs on potassium contracture was examined.

Assay [7] concerns potassium contracture, mesenteric artery. Description: isolated mesenteric artery, antagonistic action on potassium contracture (Magnus method). The settings on record: dog mesenteric artery, 50% inhibition of maximum reaction, reciprocal logarithm of molar concentration. As for the experimental part:
as §2
(§3) (6) Isolated mesenteric artery
(§4) Using an isolated mesenteric artery of a dog, the antagonistic action of the test drugs on (a) potassium contracture and (b) norepinephirine was examined.

The target of assay [8] is T2, isoproterenol, atrium dextrum and atrium sinistrum (Cavia porcellus, UniProt H0W3H1).
T2 construct: Using the atrium dextrum and atrium sinistrum of a guinea pig; from tissue; host or cells: guinea pig right and left atria
T2 sequence (H0W3H1 1-470): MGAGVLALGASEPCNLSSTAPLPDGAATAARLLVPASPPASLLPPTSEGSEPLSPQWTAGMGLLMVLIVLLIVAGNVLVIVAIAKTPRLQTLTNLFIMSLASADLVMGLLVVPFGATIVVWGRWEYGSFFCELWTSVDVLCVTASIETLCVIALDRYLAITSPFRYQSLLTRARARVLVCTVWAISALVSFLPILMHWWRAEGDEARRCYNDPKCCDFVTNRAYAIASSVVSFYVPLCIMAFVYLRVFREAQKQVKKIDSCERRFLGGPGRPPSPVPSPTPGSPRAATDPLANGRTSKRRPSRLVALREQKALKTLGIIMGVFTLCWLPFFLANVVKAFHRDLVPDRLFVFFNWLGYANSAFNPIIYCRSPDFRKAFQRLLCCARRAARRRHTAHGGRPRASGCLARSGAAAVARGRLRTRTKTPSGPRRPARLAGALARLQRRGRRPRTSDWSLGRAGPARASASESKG
Nature of the assay: isolated atrium cordis samples, antagonistic action on isoproterenol (Magnus method). The settings on record: guinea pig atrium, vs isoproterenol; reciprocal logarithm of molar concentration. As for the experimental part:
as §1
(1) Isolated atrium cordis samples
Using the atrium dextrum and atrium sinistrum of a guinea pig, the contractile force and rhythem were recorded, and the antagonistic action of the test drugs on isoproterenol was examined.

Assay [9] has as its system potassium contracture, saphenous vein. Nature of the assay: isolated saphenous vein, action on potassium contracture (Magnus method). The note with it: dog saphenous vein, 50% inhibition of maximum reaction, reciprocal logarithm of molar concentration. On the procedure:
as §2
(5) Isolated saphenous vein
Using an isolated saphenous vein of a dog, the action of the test drugs on potassium contracture was examined.

For assay [10], the system named is norepinephirine, mesenteric artery. Description: isolated mesenteric artery, antagonistic action on norepinephrine (Magnus method). The settings on record: dog mesenteric artery, vs norepinephrine; reciprocal logarithm of molar concentration. On the procedure: as §2, §3, §4
Where [11] appears, read: 30 mg/kg, controls 22.5 ± 1.4 and (second set) 19.4 ± 4.0.
Where [12] appears, read: 30 mg/kg, controls 0.18 ± 0.04 and (second set) 0.21 ± 0.08.
[13] abbreviates: 30 mg/kg, controls 0.53 ± 0.15 and (second set) 0.55 ± 0.14.
[14] abbreviates: 30 mg/kg, controls 3.08 ± 0.27 and (second set) 2.76 ± 0.83.

Where a name gives a salt, the structure may show the parent alone.

T1 sequence (Q8K4Z4 whole entry): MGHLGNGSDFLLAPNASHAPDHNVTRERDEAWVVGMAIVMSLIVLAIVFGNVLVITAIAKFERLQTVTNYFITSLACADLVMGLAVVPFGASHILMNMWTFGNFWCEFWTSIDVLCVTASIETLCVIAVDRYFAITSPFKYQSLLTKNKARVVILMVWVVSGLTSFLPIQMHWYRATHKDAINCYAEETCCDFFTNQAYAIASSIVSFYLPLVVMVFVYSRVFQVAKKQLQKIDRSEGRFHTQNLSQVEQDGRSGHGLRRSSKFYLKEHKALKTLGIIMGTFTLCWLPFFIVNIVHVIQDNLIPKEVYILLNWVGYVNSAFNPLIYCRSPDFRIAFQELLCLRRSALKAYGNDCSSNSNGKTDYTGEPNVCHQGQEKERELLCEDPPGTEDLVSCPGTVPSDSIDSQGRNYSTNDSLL

Turning to `CC(C)NCC(O)COc1cccc2ccccc12` (centres unmarked) [Comparative drug I, propranolol hydrochloride, reference compound], the Amount of urine in assay [1] (setting [11]) amounted to 27.8 ± 3.7 mL/kg. The same compound had a K/Na in [1] (setting [12]) of 0.21 ± 0.04. The compound also gave a K excreted in [1] (setting [13]) of 0.70 ± 0.11 mEq/kg. Moreover, in assay [1] (setting [14]), the Na excreted worked out at 3.42 ± 0.28 mEq/kg.
In the same order, the values of `NS(=O)(=O)c1cc2c(cc1Cl)NC(C(Cl)Cl)NS2(=O)=O` (centres unmarked) [Comparative drug II, trichlormethiazide, reference compound] are 34.8 ± 1.7 mL/kg, 0.21 ± 0.04, 1.12 ± 0.18 mEq/kg and 5.36 ± 0.42 mEq/kg.
On to `CC(C)NCC(O)COc1cccc2c1OCC(O[N+](=O)[O-])C2` (centres unmarked) [Compound Ia, 3,4-dihydro-8-[(2-hydroxy-3-isopropylamino)propoxy]-3-nitrato-2H-benzopyran], for which the “(8) Femoral blood flow*” value in [2] is recorded as “+~-”. The “(3) pD'2” value in [3] is 6.2-6.3. Besides, the “(2) pA2” value in assay [4] was 9.1-9.2. In addition, the Amount of urine in assay [1] (10 mg/kg, control 22.5 ± 1.4) amounted to 24.2 ± 2.2 mL/kg; in [1] (setting [11]), 31.1 ± 3.2 mL/kg; in assay [1] (100 mg/kg, control 19.4 ± 4.0), 34.0 ± 3.7 mL/kg. For the same compound, the K excreted is reported as 0.61 ± 0.20 mEq/kg in assay [1] (10 mg/kg, control 0.53 ± 0.15); 0.91 ± 0.23 mEq/kg in assay [1] (setting [13]); 0.14 ± 0.45 mEq/kg in [1] (100 mg/kg, control 0.55 ± 0.14). For the same compound, the Na excreted was found to be 3.25 ± 0.18 mEq/kg in assay [1] (10 mg/kg, control 3.08 ± 0.27); 4.18 ± 0.56 mEq/kg in assay [1] (setting [14]); 3.69 ± 0.33 mEq/kg in assay [1] (100 mg/kg, control 2.76 ± 0.83). In addition, the K/Na in assay [1] (setting [12]) stood at 0.20 ± 0.05; in [1] (100 mg/kg, control 0.21 ± 0.08), 0.30 ± 0.10; in assay [1] (control 0.18 ± 0.04), 0.19 ± 0.07. Besides, the “β- and α-blocking activities” value in assay [5] is “strong β- and α-blocking activities”. In addition, in assay [6], the “(4) pD'2” value is 6.3-6.4. Moreover, the “(6) (a) pD'2” value in [7] was 5.2-5.3. In addition, in assay [8], the “(1) pA2” value is on record as 9.1. The “(5) pD'2” value in assay [9] is on record as 5.8-6.0. The “(6) (b) pA2” value in assay [10] is recorded as 7.0-7.1.
For `CC(C)NCC(O)COc1cccc2c1OCC(CO[N+](=O)[O-])C2` (centres unmarked) [Compound Ib, 3,4-dihydro-8-[(2-hydroxy-3-isopropylamino)propoxy]-3-nitratomethyl-2H-benzopyran], the “(8) Femoral blood flow*” value in assay [2] is recorded as “+~-”. Moreover, in assay [3], the “(3) pD'2” value was 5.7. Also, the Kb in assay [4] (read-out: (2) pA2 (converted)) was 5.13 nM. The Amount of urine in [1] (setting [11]) is 32.6 ± 4.5 mL/kg. The K/Na in [1] (setting [12]) came out at 0.21 ± 0.08. The K excreted in assay [1] (setting [13]) came out at 0.83 ± 0.36 mEq/kg. The compound further displayed a Na excreted in assay [1] (setting [14]) of 3.87 ± 0.64 mEq/kg. Moreover, in assay [6], the “(4) pD'2” value is 6.2. In assay [7], the “(6) (a) pD'2” value turned out to be 5.6. Moreover, the “(1) pA2” value in [8] was found to be 7.83. Further, the “(5) pD'2” value in assay [9] is 6.2. The “(6) (b) pA2” value in assay [10] is recorded as 6.4.
